In one assay the target is T1, Caspase-3 (Homo sapiens, UniProt P42574).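 Also: Dose-response selectivity test against caspase-3 for candidate inhibitors of sentrin-specific proteases (SENPs).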
T1 sequence (P42574 whole entry): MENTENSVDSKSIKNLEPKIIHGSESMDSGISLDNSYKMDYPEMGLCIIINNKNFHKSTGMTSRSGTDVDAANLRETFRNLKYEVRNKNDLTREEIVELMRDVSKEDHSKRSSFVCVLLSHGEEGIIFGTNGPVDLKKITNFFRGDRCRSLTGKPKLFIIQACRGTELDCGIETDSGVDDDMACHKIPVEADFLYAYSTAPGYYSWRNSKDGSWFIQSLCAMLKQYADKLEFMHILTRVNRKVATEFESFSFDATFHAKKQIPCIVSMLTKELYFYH
In kind it is functional.

Assay [1] has as its target T2, Sentrin-specific protease 8 (Homo sapiens, UniProt Q96LD8).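 Also: luminescence read-out of SENP8 inhibition, dose-response confirmation following an ultra-high-throughput screen.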
T2 sequence (Q96LD8 whole entry): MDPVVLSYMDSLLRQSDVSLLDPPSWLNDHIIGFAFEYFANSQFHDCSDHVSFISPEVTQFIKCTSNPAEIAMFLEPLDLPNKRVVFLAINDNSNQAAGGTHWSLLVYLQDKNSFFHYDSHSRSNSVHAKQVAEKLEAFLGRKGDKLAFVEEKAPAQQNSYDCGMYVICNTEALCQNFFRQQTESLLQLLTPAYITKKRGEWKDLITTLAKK
In kind it is functional.

For assay [2], the target named is T3, Apoptotic protease-activating factor 1 (Homo sapiens, UniProt O14727).
T3 sequence (O14727 whole entry): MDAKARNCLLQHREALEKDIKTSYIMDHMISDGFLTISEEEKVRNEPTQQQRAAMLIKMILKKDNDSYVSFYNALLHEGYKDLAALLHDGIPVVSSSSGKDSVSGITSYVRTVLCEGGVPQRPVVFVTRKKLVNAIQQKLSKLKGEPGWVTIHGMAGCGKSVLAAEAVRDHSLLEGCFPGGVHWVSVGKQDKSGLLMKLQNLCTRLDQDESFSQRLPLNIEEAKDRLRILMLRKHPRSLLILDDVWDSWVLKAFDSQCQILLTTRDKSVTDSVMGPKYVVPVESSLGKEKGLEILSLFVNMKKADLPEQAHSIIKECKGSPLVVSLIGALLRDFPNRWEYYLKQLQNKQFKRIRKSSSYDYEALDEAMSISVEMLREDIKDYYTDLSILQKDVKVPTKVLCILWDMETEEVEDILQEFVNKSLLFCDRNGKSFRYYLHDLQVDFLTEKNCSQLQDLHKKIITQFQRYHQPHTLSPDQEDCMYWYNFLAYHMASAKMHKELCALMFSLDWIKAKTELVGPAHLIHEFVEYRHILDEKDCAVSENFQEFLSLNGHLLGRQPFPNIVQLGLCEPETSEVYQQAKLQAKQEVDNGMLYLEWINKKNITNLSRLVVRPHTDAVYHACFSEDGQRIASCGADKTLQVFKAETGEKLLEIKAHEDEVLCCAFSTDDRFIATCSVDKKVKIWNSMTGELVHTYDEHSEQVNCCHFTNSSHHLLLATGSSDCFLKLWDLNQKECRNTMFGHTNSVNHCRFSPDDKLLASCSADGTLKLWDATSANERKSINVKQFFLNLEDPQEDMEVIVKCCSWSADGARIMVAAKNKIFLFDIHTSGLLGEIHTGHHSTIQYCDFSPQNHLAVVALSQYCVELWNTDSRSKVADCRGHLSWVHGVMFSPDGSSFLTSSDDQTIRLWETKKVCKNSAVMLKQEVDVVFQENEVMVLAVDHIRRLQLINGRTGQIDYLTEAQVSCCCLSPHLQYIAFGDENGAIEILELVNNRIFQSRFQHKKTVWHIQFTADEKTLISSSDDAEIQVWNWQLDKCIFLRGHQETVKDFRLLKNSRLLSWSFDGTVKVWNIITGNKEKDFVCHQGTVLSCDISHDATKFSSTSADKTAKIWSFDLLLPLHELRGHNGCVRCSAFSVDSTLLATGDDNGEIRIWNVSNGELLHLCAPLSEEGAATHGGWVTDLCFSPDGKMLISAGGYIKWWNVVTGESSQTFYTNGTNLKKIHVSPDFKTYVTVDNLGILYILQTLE
The assay is classed as functional.

In the next assay the test system is INS1. Kind of assay: beta cell apoptosis inhibitors, cytokine rescue, dose response, luminescence, retest (AID 449756).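 Also: cell death triggered by IL-1 beta plus TNF-alpha plus IFN-gamma mixture; protective hits raise ATP signal compared with cytokine alone wells.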 The assay is classed as functional, cell-based. The note with it: Rattus norvegicus.
Assay [3] relates to BJ. Kind of assay: cytotoxicity toward BJ-TERT fibroblasts, dose response, cell-based, RAS-independent, luminescence (AID 1933). The assay is classed as functional. The note with it: Homo sapiens.
For assay [4], the system named is BJ. Kind of assay: cells. The note with it: Homo sapiens. The assay is classed as functional, cell-based.
For assay [5], the system named is BJ. Kind of assay: cytotoxicity toward BJ-TERT-LT-ST fibroblasts, dose response, cell-based, RAS-independent, luminescence (AID 1935).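 Also: BJ fibroblasts immortalized with TERT plus LT and ST oncogenes.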 In kind it is functional. The note with it: Homo sapiens.
Assay [6] is described as follows: cytotoxicity toward DRD oncogenic fibroblasts, dose response, cell-based, non-viral oncogenic, luminescence (AID 1934). In kind it is functional. The note with it: Homo sapiens.
In assay [7] the target is T4, Tyrosyl-DNA phosphodiesterase 2 (Homo sapiens, UniProt O95551).
T4 sequence (O95551 whole entry): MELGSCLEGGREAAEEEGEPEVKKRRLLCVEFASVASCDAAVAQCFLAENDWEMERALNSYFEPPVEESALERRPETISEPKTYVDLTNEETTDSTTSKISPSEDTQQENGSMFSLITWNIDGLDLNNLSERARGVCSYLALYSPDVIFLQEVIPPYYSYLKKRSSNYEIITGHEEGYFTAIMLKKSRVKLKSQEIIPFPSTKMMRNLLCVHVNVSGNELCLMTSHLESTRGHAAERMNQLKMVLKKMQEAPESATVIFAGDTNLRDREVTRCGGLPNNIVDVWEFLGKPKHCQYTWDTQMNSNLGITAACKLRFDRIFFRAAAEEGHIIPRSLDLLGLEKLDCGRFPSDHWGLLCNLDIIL
Kind of assay: human TDP2 enzyme inhibitors, dose response, biochemical, epi absorbance, IC50 (AID 743297).

Calls of active or inactive are those of the source.

As usually defined, the IC50 is the midpoint of a concentration-inhibition curve. As a reminder, the AC50 is the concentration giving half of the maximal activity seen. `CCc1cc[n+](C2=C([N-]S(=O)(=O)c3cccs3)C(=O)c3ccccc3C2=O)cc1`: the figures for the IC50 (on Caspase-3; in [1]; in assay [2]) were 12.5 µM (active), 8.48 µM (active) and 11.2 µM (active), respectively. Besides, the AC50 in the assay on INS1 is 2.76 µM (active).

Broadly, the EC50 is the concentration needed to bring the measured effect to its halfway point. With `O=C(NC1=C(NC2CCS(=O)(=O)C2)C(=O)c2ccccc2C1=O)c1ccccc1` (centres undefined), the EC50 in the assay with BJ [3] is 11 µM (inconclusive); with BJ [4], 3.28 µM (active); with BJ [5], > 75 µM (not active); in assay [6] it was 14.6 µM (active). For the same molecule, the IC50 in assay [2] is 2.1 µM (active); in assay [7], 28.3 µM (inactive).

Regarding `CCCC(=O)NC(c1ccc(N(C)C)cc1)c1ccc2cccnc2c1O` (centres undefined), the EC50 was 2.5 µM (active) with BJ [3], 3.42 µM (active) in the assay with BJ [4], 2.72 µM (active) with BJ [5] and 2.54 µM (active) in assay [6]. In addition, the AC50 with INS1 is 0.598 µM (active).

Take `COc1ccccc1N(/N=C1\Sc2ccccc2C1=O)C(C)=O`: the IC50 on Caspase-3 is 27.8 µM (active); in assay [1] it was 5.39 µM (active); in assay [2], 13.3 µM (active); in assay [7], 20 µM (inactive).

The values are drawn from ChEMBL document CHEMBL1201862, “PubChem BioAssay data set” (2004).
